# Structures can show the parent of a compound that is named as a salt.
# Experiments:
# THP-1 = THP-1 IC50 assay; assay type: cell-based; settings: Homo sapiens; THP-1 cells
# [1] = test system: IL-1β release upon NLRP3 activation in peripheral blood mononuclear cells (PBMC); assay: PBMC IC50 Determination Assay; assay type: cell-based; settings: Homo sapiens; inhibition of IL-1β release; LPS-primed PBMC stimulated with ATP or nigericin
# Protocol: The compounds of the present disclosure were tested for their inhibitory activity against IL-1β release upon NLRP3 activation in peripheral blood mononuclear cells (PBMC).
# Protocol A. PBMC were isolated from buffy coats by density gradient centrifugation on Histopaque-1077 (Sigma, cat no. 10771). Isolated cells were seeded into the wells of a 96-well plate and incubated for 3 h with lipopolysaccharide (LPS). Following medium exchange, the compounds of the present disclosure were added (a single compound per well) and the cells were incubated for 30 min. Next, the cells were stimulated either with ATP (5 mM) or nigericin (10 μM) for 1 h and the cell culture media from the wells were collected for further analysis.
# The release of IL-1β into the media was determined by a quantitative detection of IL-1β in the media using an IL-1β enzyme-linked immunosorbent assay (ELISA) Ready-SET-Go!, eBioscience cat. No. 88-7261-88. Briefly, in a first step, high affinity binding plates (Corning, Costar 9018 or NUNC Maxisorp Cat No. 44-2404) were coated overnight at 4° C. with specific capture antibody included in the kit (anti-human IL-1β ref. 14-7018-68). Subsequently, plates were blocked with blocking buffer for 1 h at room temperature (rt) and after washing with a buffer (PBS with 0.05% Tween-20) incubated with protein standard and culture media. After 2 h of incubation at rt, plates were washed and incubated with biotinylated detection antibody included in the kit (anti-human IL-1β Biotin ref. 33-7110-68) for 1 h at rt. Plates were washed and incubated with HRP-streptavidin for 30 min at rt and washed again. The signal was developed after addition of 3,3′,5,5′-tetramethylbenzidine-peroxidase (TMB) until colour appeared and the reaction was stopped by 2 M H2SO4. A microplate spectrophotometer (BioTek) was used to detect signals with 450 nm. The detection range of IL-1β ELISA was […].
# Protocol B. PBMC were isolated from buffy coats by density gradient centrifugation on Histopaque-1077 (Sigma, cat no. 10771). Isolated cells were seeded into the wells (280,000 cells/well) of a 96-well plate and incubated for 3 h with lipopolysaccharide (LPS, 1 μg/mL diluted 1000× from a 1 mg/mL stock solution). The compounds of the present disclosure were added (a single compound per well) and the cells were incubated for 30 min. Next, the cells were stimulated with ATP (5 mM final concentration diluted 20× from a 100 mM stock solution) for 1 h and the cell culture media from the wells were collected for further analysis.
# The release of IL-1β into the media was determined by quantitative detection of IL-1β in the media using HTRF®, CisBio cat. No. 62HIL1BPEH. Briefly, cell culture supernatant were dispensed directly into the assay plate containing antibodies labelled with the HTRF® donor and acceptor. A microplate spectrophotometer (BMG) was used to detect signals at 655 nm and 620 nm. The detection range of IL-1β HTRF® was 39-6500 μg/mL.
IC50 (THP-1) [nM],Compound,IC50 [1] [nM]
< 500,"Cc1cc(Cl)cc(O)c1-c1ccc(CN2CCCC2=O)nn1 [Compound 62, 1-[[6-(4-chloro-2-hydroxy-6-methyl-phenyl)pyridazin-3-yl]methyl]pyrrolidin-2-one]",< 500
500 to 1000,"Cc1cc(Cl)cc(O)c1-c1ccc(CO[C@@H]2CCOC2)nn1 [Compound 63, (R)-5-Chloro-3-methyl-2-(6-(((tetrahydrofuran-3-yl)oxy)methyl)pyridazin-3-yl)phenol]",< 500
< 500,"Cc1cc(Cl)cc(O)c1-c1ccc(CO[C@H]2CCOC2)nn1 [Compound 64, (S)-5-Chloro-3-methyl-2-(6-(((tetrahydrofuran-3-yl)oxy)methyl)pyridazin-3-yl)phenol]",< 500
500 to 1000,"Cc1cc(Cl)cc(O)c1-c1ccc(COC2COC2)nn1 [Compound 65, 5-Chloro-3-methyl-2-(6-((oxetan-3-yloxy)methyl)pyridazin-3-yl)phenol]",< 500
1000 to 3000,"Cc1cc(Cl)cc(O)c1-c1ccc(CN[C@@H]2CCC(=O)N(C)C2)nn1 [Compound 66, (R)-5-(((6-(4-Chloro-2-hydroxy-6-methylphenyl)pyridazin-3-yl)methyl)amino)-1-methylpiperidin-2-one]",500 to 1000
< 500,"Cc1cc(Cl)cc(O)c1-c1ccc(CN2CCOC2=O)nn1 [Compound 67, 3-((6-(4-Chloro-2-hydroxy-6-methylphenyl)pyridazin-3-yl)methyl)oxazolidin-2-one]",< 500
500 to 1000,"CC(=O)N1CCC(OCc2ccc(-c3c(C)cc(Cl)cc3O)nn2)C1 (stereo not shown) [Compound 68, 1-(3-((6-(4-Chloro-2-hydroxy-6-methylphenyl)pyridazin-3-yl)methoxy)pyrrolidin-1-yl)ethan-1-one]",500 to 1000
3000 to 10000,"Oc1cc(Cl)cc(F)c1-c1ccc(CNC2CCOCC2)nn1 [Compound 69, 5-Chloro-3-fluoro-2-(6-(((tetrahydro-2H-pyran-4-yl)amino)methyl)pyridazin-3-yl)phenol hydrochloride]",3000 to 10000
1000 to 3000,"Cc1cc(OC(F)F)cc(O)c1-c1ccc(CNC2CCOCC2)nn1 [Compound 70, 5-(Difluoromethoxy)-3-methyl-2-(6-(((tetrahydro-2H-pyran-4-yl)amino)methyl)pyridazin-3-yl)phenol]",1000 to 3000
1000 to 3000,"Cc1cc(C(F)(F)F)cc(O)c1-c1ccc(CNC2CCN(C)C2)nn1 (stereo not shown) [Compound 71, 3-Methyl-2-(6-(((1-methylpyrrolidin-3-yl)amino)methyl)pyridazin-3-yl)-5-(trifluoromethyl)phenol dihydrochloride]",500 to 1000
1000 to 3000,"CC(=O)N1CC[C@@H](NCc2ccc(-c3c(C)cc(Cl)cc3O)nn2)C1 [Compound 72, (R)-1-(3-(((6-(4-Chloro-2-hydroxy-6-methylphenyl)pyridazin-3-yl)methyl)amino)pyrrolidin-1-yl)ethan-1-one]",500 to 1000
< 500,"CC(=O)N1CC[C@H](NCc2ccc(-c3c(C)cc(Cl)cc3O)nn2)C1 [Compound 73, (S)-1-(3-(((6-(4-Chloro-2-hydroxy-6-methylphenyl)pyridazin-3-yl)methyl)amino)pyrrolidin-1-yl)ethan-1-one]",< 500
1000 to 3000,"Cc1cc(C(F)(F)F)cc(O)c1-c1ccc(CNc2ncccn2)nn1 [Compound 74, 3-Methyl-2-(6-((pyrimidin-2-ylamino)methyl)pyridazin-3-yl)-5-(trifluoromethyl)phenol]",1000 to 3000
< 500,"Cc1cc(C(F)(F)F)cc(O)c1-c1ccc(CNc2ccncn2)nn1 [Compound 75, 3-Methyl-2-(6-((pyrimidin-4-ylamino)methyl)pyridazin-3-yl)-5-(trifluoromethyl)phenol hydrochloride]",500 to 1000
1000 to 3000,"Cc1cc(C(F)(F)F)cc(O)c1-c1ccc(CNCC2CCCN2C)nn1 (stereo not shown) [Compound 76, 3-Methyl-2-(6-((((1-methylpyrrolidin-2-yl)methyl)amino)methyl)pyridazin-3-yl)-5-(trifluoromethyl)phenol dihydrochloride]",1000 to 3000
1000 to 3000,"Cc1cc(C(F)(F)F)cc(O)c1-c1ccc(CNCC2CCN(C)C2)nn1 (stereo not shown) [Compound 77, 3-Methyl-2-[6-({[(1-methylpyrrolidin-3-yl)methyl]amino}methyl)pyridazin-3-yl]-5-(trifluoromethyl)phenol dihydrochloride]",1000 to 3000
≥ 10000,"Cc1cc(C(F)(F)F)cc(O)c1-c1ccc(CNc2ccccn2)nn1 [Compound 78, 3-Methyl-2-(6-{[(pyridin-2-yl)amino]methyl}pyridazin-3-yl)-5-(trifluoromethyl)phenol]",≥ 10000
500 to 1000,"Cc1cc(C(F)(F)F)cc(O)c1-c1ccc(CNc2cccnc2)nn1 [Compound 79, 3-Methyl-2-(6-{[(pyridin-3-yl)amino]methyl}pyridazin-3-yl)-5-(trifluoromethyl)phenol]",500 to 1000
1000 to 3000,"Cc1cc(C(F)(F)F)cc(O)c1-c1ccc(C(C)N2CCCC2=O)nn1 (stereo not shown) [Compound 80, 1-(1-{6-[2-Hydroxy-6-methyl-4-(trifluoromethyl)phenyl]pyridazin-3-yl}ethyl)pyrrolidin-2-one]",< 500
1000 to 3000,"Cc1cc(C(F)(F)F)cc(O)c1-c1ccc(C(C)(C)N2CCCC2=O)nn1 [Compound 81, 1-(2-{6-[2-Hydroxy-6-methyl-4-(trifluoromethyl)phenyl]pyridazin-3-yl}propan-2-yl)pyrrolidin-2-one]",1000 to 3000
1000 to 3000,"Cc1cc(C(F)(F)F)cc(O)c1-c1ccc(CNc2nccn2C)nn1 [Compound 82, 3-Methyl-2-(6-{[(1-methyl-1H-imidazol-2-yl)amino]methyl}pyridazin-3-yl)-5-(trifluoromethyl)phenol hydrochloride]",500 to 1000
1000 to 3000,"Cc1cnc(NCc2ccc(-c3c(C)cc(C(F)(F)F)cc3O)nn2)s1 [Compound 83, 3-Methyl-2-(6-{[(5-methyl-1,3-thiazol-2-yl)amino]methyl}pyridazin-3-yl)-5-(trifluoromethyl)phenol]",500 to 1000
500 to 1000,"Cc1cc(NCc2ccc(-c3c(C)cc(C(F)(F)F)cc3O)nn2)sn1 [Compound 84, 3-Methyl-2-(6-{[(3-methyl-1,2-thiazol-5-yl)amino]methyl}pyridazin-3-yl)-5-(trifluoromethyl)phenol]",500 to 1000
1000 to 3000,"Oc1cc(C(F)(F)F)cc(C(F)(F)F)c1-c1ccc(CNC2CCOCC2)nn1 [Compound 85, 2-(6-{[(Oxan-4-yl)amino]methyl}pyridazin-3-yl)-3,5-bis(trifluoromethyl)phenol]",1000 to 3000
500 to 1000,"Cc1cc(C(F)(F)F)cc(O)c1-c1ccc(C2(N3CCCC3=O)CC2)nn1 [Compound 86, 1-(1-{6-[2-Hydroxy-6-methyl-4-(trifluoromethyl)phenyl]pyridazin-3-yl}cyclopropyl)pyrrolidin-2-one]",500 to 1000
< 500,"Cc1cc(Cl)cc(O)c1-c1ccc(CN[C@H]2CCC(=O)N(C)C2)nn1 [Compound 87, (5S)-5-({[6-(4-Chloro-2-hydroxy-6-methylphenyl)pyridazin-3-yl]methyl}amino)-1-methylpiperidin-2-one]",< 500
< 500,Cc1cc(C(F)(F)F)cc(O)c1-c1ccc(CN[C@H]2CCC(=O)N(C)C2)nn1 [Compound 88],< 500
< 500,"Cc1cc(Cl)cc(O)c1-c1ccc(CN2CCCC2=S)nn1 [Compound 89, 1-{[6-(4-Chloro-2-hydroxy-6-methylphenyl)pyridazin-3-yl]methyl}pyrrolidine-2-thione]",< 500
500 to 1000,"Cc1cc(Cl)cc(O)c1-c1ccc(CN[C@H]2CC(=O)N(C)C2)nn1 [Compound 90, (4S)-4-({[6-(4-Chloro-2-hydroxy-6-methylphenyl)pyridazin-3-yl]methyl}amino)-1-methylpyrrolidin-2-one]",< 500
